Measured values: publication PMC11313435, “Identification of Antioxidant Methyl Derivatives of Ortho-Carbonyl Hydroquinones That Reduce Caco-2 Cell Energetic Metabolism and Alpha-Glucosidase Activity” (International Journal of Molecular Sciences, 2024)

Tests used:
α-glucosidase = α-glucosidase inhibitory activity (p-nitrophenyl α-D-glucopyranoside substrate); assay type: biochemical; settings: for IC50: pH 6.9, 37 °C, 15 min, mean ± SD of three experiments, read-out: Inhibition of α-Glucosidase Activity IC50; for pIC50 (α-glucosidase): pIC50 = −log[IC50], Figure 2A
Description: The inhibition of α-glucosidase was determined following a previous method [62] using p-nitrophenyl α-D-glucopyranoside as a substrate. The reaction mixture contained 160 µL of 0.1 M sodium phosphate buffer (pH = 6.9), 5 µL of enzyme (5.46 U/mL), and polyphenolic extract (0.17–1.36 µg/mL). After the pre-incubation of the reaction mixture on ice for 5 min, the enzyme reaction was started by adding 5 µL of 25 mM p-nitrophenyl α-D-glucopyranoside into this mixture. The reaction was incubated for 15 min at 37 °C. Then, 80 µL of 0.2 M sodium carbonate was added. The absorbance was measured at 405 nm in a microplate reader (Biotek ELx808, Agilent, Santa Clara, CA, USA). Enzyme inhibition was calculated using the following equation: % inhibition = (A0 − As)/A0 × 100, where A0 is the absorbance of the control (blank, without extract) and As is the absorbance in presence of the extract. IC50 values denote the µg GAE/mL required to inhibit the enzyme by 50%.

Caco-2 cells = assay: Extracellular acidification rate and oxygen consumption rate in real time (Seahorse XFe96); assay type: cell-based, human; settings: Caco-2, 100 µM; for Effect on max OCR: 24 h (Figures 3C, 4A-D); for Effect on glycolysis (ECAR) / Effect on glycolysis, cluster in dendrogram / Effect on basal mitochondrial OCR: 24 h; for Effect on glycolysis (ECAR): compared to control (Figures 3B, 4E-H); for Effect on glycolysis, cluster in dendrogram: clusters of Figure 3C; for Effect on basal mitochondrial OCR: compared to control (Figures 3B, 4A-D)
Description: We previously described how ortho-carbonyl hydroquinone scaffolds inhibit oxidative phosphorylation in breast cancer cells. Since the reduction in glucose utilization and metabolism in intestinal cells is a promising target for T2DM treatment, the effect of these compounds on mitochondrial respiration and glycolysis in Caco-2 cells was determined. […] The effect of ortho-carbonyl hydroquinone series (100 µM) on five parameters of mitochondrial respiration (basal OCR, max OCR, spare capacity, ATP-linked OCR, and proton leak-driven OCR), and two of glycolysis (glycolytic capacity and glycolysis), is represented in a dendrogram (Figure 3C). […] OCR: compounds 1, 6, 7, and 9. […] No correlations between OCR and ECAR parameters, α-glucosidase activity inhibition, or ORAC were observed (Supplementary Figure S1).
In contrast, compound 10 increases the proton leak-OCR and decreases max OCR (Figure 4A–D).
To analyze the extracellular acidification rate (ECAR), Caco-2 cells (10,000 cells/well) were seeded on XFe96 V3-PS multi-well plates and kept for 24 h at 37 °C in 5% CO2 with a DMEM culture medium supplemented with FBS. After 24 h, the cells were stimulated by compounds at 100 μM for 24 h. Then, the culture medium was replaced with assay media (unbuffered DMEM without red phenol, with 4 mM glutamine and 10 mM glucose, pH = 7.4) 1 h before the assay. Glycolysis was evaluated by the sequential injection of 10 mM glucose, 1 µM oligomycin, and 100 mM 2-deoxy-D-glucose (2-DG), and ECAR was analyzed using specific excitation and emission wavelengths of protons (470/530 nm). To study the mitochondrial function, the sequential injection of 1 μM oligomycin, 250 nM FCCP, 1 μM rotenone, and 1 μM antimycin A was added. The oxygen consumption rate (OCR) measurements were made with the specific excitation and emission wavelengths of the fluorescent probes for oxygen (532/650 nm) using a Seahorse XFe96 Analyzer (Seahorse Agilent, USA), and OCR and ECAR data were normalized by protein content/well, which was determined using a BCA kit. Each experiment was performed at least in triplicate. The OCR/ECAR data analysis and dendrograms were performed using XLSTAT software (version 2023.2.1414, Lumivero, New York, NY, USA).

[1] = ORAC assay (oxygen radical absorbance capacity, ORAC-FL); settings: radical scavenging against peroxyl radicals; mean ± SD of three experiments
Description: The radical-scavenging activities of the hydroquinone series against peroxyl radicals were assessed (ORAC assays). […] Similarly, for the series with the gem-diethyl group on ring B (compounds 6–10), compound 6 presents the highest antioxidant capacity (7.0 + 0.3 mol TE/mol compound). […] The replacement of the gem-dimethyl with the gem-diethyl group also decreases the antioxidant capacity.
The antioxidant activity was determined by ORAC (oxygen radical absorbance capacity) assays. Briefly, the antioxidant capacity for ORAC-FL was estimated by measuring the changes in fluorescence after 120 min of reaction with the radical. Assays were performed using a 96-well microplate in a Synergy H1 hybrid multi-mode microplate reader (Biotek, Winooski, VT, USA), and the results were expressed as µmol Trolox 100 g^−1 DW. Three replicates were accomplished for each analysis.

Row | Compound | melting point [°C] | IC50 (α-glucosidase) [µM] | pIC50 (α-glucosidase) (α-glucosidase) | Effect on max OCR (Caco-2 cells) | Effect on glycolysis (ECAR) (Caco-2 cells) | Effect on glycolysis, cluster in dendrogram (Caco-2 cells) | ORAC [1] [mol TE/mol Compound] | Effect on basal mitochondrial OCR (Caco-2 cells)
1 | Cc1cc(O)c2c(c1O)C(=O)C=CC2(C)C [Compound 3, 5,8-Dihydroxy-4,4,7-trimethylnaphthalen-1(4H)-one] | 204 | > 500 | 3.26 | reduced effect on max OCR | reduces the glycolysis | glycolysis inhibitors | 3.9 ± 0.1 | –
2 | CCC1(CC)C=CC(=O)c2c(O)c(C)cc(O)c21 [Compound 8, 4,4-Diethyl-5,8-dihydroxy-7-methylnaphthalen-1(4H)-one] | 198.2 | 60 | 4.20 | reduced effect on max OCR | reduces the glycolysis | glycolysis inhibitors | 5.9 ± 0.3 | –
3 | CCC1(CC)C=CC(=O)c2c(O)c(C)c(C)c(O)c21 [Compound 9, 4,4-Diethyl-5,8-dihydroxy-6,7-dimethylnaphthalen-1(4H)-one] | 174.9 to 179.8 | > 500 | 3.29 | strong inhibitory effect on max. OCR | reduces the glycolysis | glycolysis enhancers | 0.83 ± 0.03 | –
4 | Cc1c(C)c(O)c2c(c1O)C(=O)C=CC2(C)C [Compound 4, 5,8-Dihydroxy-4,4,6,7-tetramethylnaphthalen-1(4H)-one] | – | 245 | 3.61 | reduced effect on max OCR | increases the glycolysis | glycolysis inhibitors | 1.05 ± 0.03 | lacking effect on OCR
5 | Cc1cc(O)c2c(c1O)C(C)(C)C=CC2=O [Compound 2, 5,8-Dihydroxy-4,4,6-trimethylnaphthalen-1(4H)-one] | – | 140 | 3.85 | reduced effect on max OCR | reduces the glycolysis | glycolysis inhibitors | 5.5 ± 0.2 | –
6 | CC1(C)C=CC(=O)c2c(O)ccc(O)c21 [Compound 1, 5,8-Dihydroxy-4,4-dimethylnaphthalen-1(4H)-one] | – | – | 3.72 | strong inhibitory effect on max. OCR | increases ECAR | glycolysis enhancers | – | reduces the basal mitoOCR
7 | CCC1(CC)C=CC(=O)c2c(O)cc(C)c(O)c21 [Compound 7, 4,4-Diethyl-5,8-dihydroxy-6-methylnaphthalen-1(4H)-one] | – | 110 | 3.96 | strong inhibitory effect on max. OCR | increases the glycolysis | glycolysis enhancers | 7.2 ± 0.4 | lacking effect on OCR
